From US12403115B2, “Asymmetric synthesis and uses of compounds in disease treatments” (Zhejiang Jiachi Development Pharmaceuticals LTD., priority 2017, dated 2025)
“Also recorded” adds a separate entry of the source.

How the values were obtained:
OVX female mice [1] = assay: OVX mice: osteoporosis by micro-CT (BMD, BV/TV); type: in vivo; settings: for prevention of osteoporosis (micro-CT): OVX mice, given by food, three months
Description: (§1) In this Example, studies have been shown the estrogenic effects of α- and β-anordrins on estrogen-modulated metabolic signaling and tissue atrophy. The ovaries of 7 week old mice were surgically excised. One week post surgery, the mice were given isoflavone, α-anordrin or β-anordrin by food. Body mass, blood glucose and food intake were measured monthly. After three months. Mice were sacrificed. The leg and spine bone, liver, uterus and vagina were harvested.
(§2) The ovaries of 6 week old mice were excised by surgery. 3 days post surgery drugs were administered by gastric tract injection every day or mixed with food.
(§3) Thighbone was fixed in 1×DPBS containing 3% formaldehyde for two weeks. The fixation solution was exchanged after one week. The density of thighbone was measured by Siemens Inveon Micro-CT. Inveon Research Workplace (IRW) was used to analyze the HU2000 value at the following measurement conditions: 80 KVP, […], 1500 ms exposure time; CCD Readout installation: 2048axial, 2048 binning; FOV Transaxial: 19.03 mm, axial: 19.03 mm, pixels size: 9.29 μm.

OVX female mice [2] = assay: OVX mice: TG accumulation in liver (H&E sections, liver TG); type: in vivo; settings: given by food
Description: as §1, §2
The error was corrected by using internal standard controls.

mouse vagina = assay: Anastrozole-induced vagina atrophy in mice (vagina wet mass, H&E sections); type: in vivo; settings: food containing drug plus equal amount of anastrozole, 6 months
Excerpt: (§4) Aromatase inhibitors were administrated to ER positive breast in post-menopausal women. […] It was administrated to ER positive breast cancer in post menopausal women. […] Vulvovagina atrophy usually results in infection of vagina and urinary tract. As an example, we tested whether α-anordrin or β-anordrin eliminates anastrozole-induced uterus and vulvovagina atrophy, and osteoporosis. […] Mice were then sacrificed to harvest vagina, leg and spine bone. The tissues were fixed in paraformaldehyde.
(§5) Vagina was cut at the middle site. Both uterine site and vulvovaginal site were embedded in paraffin at the same direction for H&E section preparation. The thickness of vulvovaginal wall was measured from 40× magnification images of Paraffin-embedded H&E mice vagina sections.

mice uterus EECs = tested on: mice uterus EECs
Description: (§6) Tamoxifen was the first FDA-approved drug for breast cancer patients with positively expressed ER. […] We further tested whether α-anordrin or β-anordrin eliminates tamoxifen-induced EEC mitosis. […] Mice were then sacrificed to harvest uterus and liver. Uterine and liver tissues were fixed.
(§7) The tissue of mice was excised by surgery and fixed using 4% paraformaldehyde in 1×DPBS (Beijing Solar Bioscience & Technology co., Ltd). Paraffin section preparation and HE staining was performed by GLP laboratory of BK animal model, Inc.
EEC height was measured from 20-200× magnification EEC images of Paraffin-embedded H&E mice uterus sections.

mouse liver = tested on: mouse liver
Description: as §6, §7
30-50 mg of mouse liver was excised by surgery and homogenized in 1 ml Cholroform:Methanol (2:1) mixture and extracted using 0.5 ml ddH2O. The organic phase was transferred to new tubes and air dried. The amount of TG was measured using kits following manufacturer's instructions. The error was corrected by using internal standard controls.

OVX female mice [3] = assay: OVX mice: vulvovagina atrophy (vagina wet mass, H&E sections, thickness of vulvovagina wall); type: in vivo; settings: given by food, three months
Description: as §1, §2, §5

mice bone = assay: Anastrozole-induced osteoporosis in mice by micro-CT (BMD, BV/TV, Tb.N); type: in vivo; settings: for inhibition of anastrozole-induced osteoporosis (micro-CT): food containing drug plus equal amount of anastrozole, 6 months
Excerpt: as §4, §3

[4] = tested on: endometrial epithelial cell (EEC); settings: earlier finding of the applicants, no method given here (cf. reference 21); cited from earlier work
OVX female mice [5] = assay: OVX mice: uterus atrophy (uterine wet mass, H&E sections); type: in vivo; settings: three months
Description: as §1, §2

OVX female mice [6] = assay: OVX mice: blood glucose, blood TG, body mass and food uptake; type: in vivo
Description: as §1
glucose concentration in medium or total blood from mouse tail was measured using glucose assay kits following manufacturer's instructions (Yicheng, Beijing).
as §2

[7] = mice, food containing drug plus tamoxifen, 6 months
[8] = combination with equal amount of anastrozole, micro-CT

C#C[C@]1(OC(=O)CC)C[C@@H]2CC[C@@H]3[C@H](CC[C@@]4(C)[C@H]3CC[C@]4(C#C)OC(=O)CC)[C@@]2(C)C1 [β-anordrin, (2β,17α)-diethynyl-(2α,17β)-diol-dipropionate-A-nor-5α-androstane, reference compound]
prevention of osteoporosis (micro-CT) (OVX female mice [1]): not 3-anordrin prevented osteoporosis
amount of liver TG (liver H&E section and statistical analysis) (OVX female mice [2]): not β-anordrin decreased the amount of liver TG
inhibition of anastrozole-induced vagina atrophy (vagina wet mass, H&E sections) (mouse vagina): not β-anordrin inhibited anastrozole-induced vagina atrophy
inhibition of tamoxifen-induced EEC mitosis (mice uterus EECs; [7]): not β-anordrin inhibited tamoxifen-induced EEC mitosis
inhibition of tamoxifen-induced NASH (mouse liver; [7]): not β-anordrin inhibited
prevention of vulvovagina atrophy (uterus and vagina wet mass and H&E staining) (OVX female mice [3]): not β-anordrin prevented vulvovagina atrophy
inhibition of anastrozole-induced osteoporosis (micro-CT) (mice bone): not β-anordrin inhibited anastrozole-induced osteoporosis

C#C[C@@]1(OC(=O)CC)C[C@@H]2CC[C@@H]3[C@H](CC[C@@]4(C)[C@H]3CC[C@]4(C#C)OC(=O)CC)[C@@]2(C)C1 [anordrin]
elimination of tamoxifen-induced endometrial epithelial cell (EEC) mitosis [4]: can eliminate tamoxifen-induced endometrial epithelial cell (EEC) mitosis

CC/C(=C(\c1ccccc1)c1ccc(OCCN(C)C)cc1)c1ccccc1 [TAM, tamoxifen, reference compound]
appearance of EECs in H&E staining sections (mice uterus EECs; mouse, in vivo): rough and mitotic
fatty deposition in liver cells (H&E staining sections) (mouse liver; mouse, in vivo): high fatty deposition in liver cells

C#C[C@@]1(OC(=O)CC)CC2CCC3C(CC[C@@]4(C)C3CC[C@]4(C#C)OC(=O)CC)[C@@]2(C)C1 (single isomer, unassigned) [α-anordrin, (2α,17α)-diethynyl-(2β, 17β)-diol-dipropionate-A-nor-5α-androstane]
prevention of the decrease of bone volume (BV)/bone trabecula volume (TV) ratio (BV/TV) (OVX female mice [1]; OVX female mice, micro-CT): more activity to prevent the ratio decreasing of bone volume (BV)/bone trabecula volume (TV) (BV/TV) compared with β-anordrin
prevention of the loss of bone mean density (BMD) (OVX female mice [1]; OVX female mice, micro-CT): more activity to prevent the loss of bone mean density (BMD) compared with β-anordrin
prevention of osteoporosis (micro-CT) (OVX female mice [1]): prevented osteoporosis; also recorded: more actively to prevent the osteoporosis compared with β-anordrin
amount of liver TG (liver H&E section and statistical analysis) (OVX female mice [2]): decreased the amount of liver TG; also recorded: dosage dependent activity to prevent TG accumulation in liver
inhibition of anastrozole-induced vagina atrophy (vagina wet mass, H&E sections) (mouse vagina): inhibits anastrozole-induced vagina atrophy
prevention of uterus atrophy (OVX female mice [5]; OVX female mice, lower dosage, compared with sham group): did not prevent the uterus atrophy
atrophy symptom in uterus (OVX female mice [5]; OVX mice, given by food): less atrophy symptom in uterus compared with those mice treated by β-anordrin and blank groups
body mass (OVX female mice [6]; after administration of drugs by food): less and dosage dependent activity to decrease
blood glucose (OVX female mice [6]; given by food): less and dosage dependent activity to decrease
blood triglyceride (TG) (OVX female mice [6]; given by food): less and dosage dependent activity to decrease
prevention of vulvovagina atrophy (uterus and vagina wet mass and H&E staining) (OVX female mice [3]): prevented vulvovagina atrophy; also recorded: dosage dependent activity to prevent the atrophy of vulvovagina
inhibition of anastrozole-induced decrease of BV/TV (mice bone; [8]): inhibits anastrozole-induced the ratio decreasing of bone volume (BV)/bone trabecular volume (TV) (BV/TV)
inhibition of anastrozole-induced decrease of bone trabecula number (Tb.N) (mice bone; [8]): inhibits anastrozole-induced the decreasing of bone trabecula number (Tb.N)
inhibition of anastrozole-induced loss of bone mean density (BMD) (mice bone; [8]): inhibits anastrozole-induced the loss of bone mean density (BMD)
inhibition of anastrozole-induced osteoporosis (micro-CT) (mice bone): inhibited anastrozole-induced osteoporosis; also recorded: inhibits anastrozole-induced osteoporosis in bone
